# Reference: patent US10358446B2, “Bruton's tyrosine kinase inhibitors” (Zibo Biopolar Changsheng Pharmaceutical Co. Ltd., priority 2015, dated 2019)
# Target: BTK (Homo sapiens (Human), UniProt Q06187)
# Test: Btk kinase assay (HTRF)
# Type: biochemical
# Settings: [ATP]=80 μM, BTK=3.4 nM; read-out: BTK Inhibition
# Method: Btk kinase activity was determined using a homogenous time resolved fluorescence (HTRF) methodology. Measurements were performed in a reaction volume of 15 μL using 384-well assay plates. Kinase enzyme, inhibitor, ATP and 1 μM peptide substrate were incubated in a reaction buffer compose of Hepes 50 mM (pH7.0), NaN3 0.02%, BSA 0.01%, Orthocanadate 0.1 mM. After one hour, the kinase reaction was quenched by the addition of […] antibody and XL-665 in 1× Detection buffer containing 60 mM EDTA (Cisbio), and the mixture was allowed to incubate for one hour. The HTRF signal was measured on a multimode plate reader (EnVision® Multilabel Reader, Perkin Elmer) with an excitation wavelength (λEx) of 330 nm and detection wavelengths (λEm) of 615 and 665 nrm. Activity was determined by the ratio of the fluorescence at 665 nm to that at 615 nm. For each compound, enzyme activity as measured at various concentrations of compound, Negative control reactions were performed in the absence of inhibitor in two replicates and eight no enzyme controls were used to determine baseline fluorescence levels. IC50s were obtained according to the equation: […] For BTK assay, [ATP]=80 μM, BTK=3.4 nM.
# Chain of BTK (Q06187 whole entry, species assumed): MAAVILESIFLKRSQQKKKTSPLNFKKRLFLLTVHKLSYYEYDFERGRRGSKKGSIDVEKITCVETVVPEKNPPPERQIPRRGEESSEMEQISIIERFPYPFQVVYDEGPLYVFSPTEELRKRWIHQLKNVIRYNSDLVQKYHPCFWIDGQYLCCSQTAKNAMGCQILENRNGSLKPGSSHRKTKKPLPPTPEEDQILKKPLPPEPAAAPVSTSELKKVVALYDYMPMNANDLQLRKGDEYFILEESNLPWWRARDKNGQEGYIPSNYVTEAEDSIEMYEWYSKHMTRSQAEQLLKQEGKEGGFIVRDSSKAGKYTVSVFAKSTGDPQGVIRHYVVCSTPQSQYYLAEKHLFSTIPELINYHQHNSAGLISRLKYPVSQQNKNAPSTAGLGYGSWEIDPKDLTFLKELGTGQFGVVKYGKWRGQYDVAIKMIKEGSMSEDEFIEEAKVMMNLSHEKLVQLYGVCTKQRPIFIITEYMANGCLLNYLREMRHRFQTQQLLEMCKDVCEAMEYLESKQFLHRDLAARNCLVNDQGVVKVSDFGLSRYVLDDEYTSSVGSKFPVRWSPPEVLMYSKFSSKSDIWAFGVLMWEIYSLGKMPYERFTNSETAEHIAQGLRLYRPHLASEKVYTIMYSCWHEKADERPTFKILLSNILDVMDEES
row,IC50,Structure (SMILES)
1,10 to 100 nM,"C=CC(=O)Nc1cccc(-n2c(=O)n(-c3cccc(NC(=O)c4ccc(C(C)(C)C)cc4)c3)c3cnccc32)c1 [Example 260, N-(3-(1-(3-acrylamidophenyl)-2-oxo-1H-imidazo[4,5-c]pyridin-3(2H)-yl)phenyl)-4-(tert-butyl)benzamide]"
2,100 to 1000 nM,"C=CC(=O)N1CC[C@@H](n2c(=O)n(-c3ccc(Oc4ccccn4)cc3)c3cnccc32)C1 [Example 104, (R)-1-(1-acryloylpyrrolidin-3-yl)-3-(4-(pyridin-2-yloxy)phenyl)-1,3-dihydro-2H-imidazo[4,5-c]pyridin-2-one]"
3,≤ 10 nM,"C=CC(=O)Nc1cccc(-n2c(=O)n(-c3ccc(Sc4ccccc4)cc3)c3cnccc32)c1 [Example 157, N-(3-(2-oxo-3-(4-(phenylthio)phenyl)-2,3-dihydro-1H-imidazo[4,5-c]pyridin-1-yl)phenyl)acrylamide]"
4,10 to 100 nM,"C=CC(=O)N1CC[C@@H](n2c(=O)n(-c3ccc(OCc4ccccc4)c(F)c3)c3cnccc32)C1 [Example 237, (R)-1-(1-acryloylpyrrolidin-3-yl)-3-(4-(benzyloxy)-3-fluorophenyl)-1,3-dihydro-2H-imidazo[4,5-c]pyridin-2-one]"
5,10 to 100 nM,"C=CC(=O)N1CC[C@@H](n2c(=O)n(-c3ccc(OCc4ccc(F)c(F)c4)c(Cl)c3)c3cnccc32)C1 [Example 201, (R)-1-(1-acryloylpyrrolidin-3-yl)-3-(3-chloro-4-((3,4-difluorobenzyl)oxy)phenyl)-1H-imidazo[4,5-c]pyridine-2(3H)-one]"
6,100 to 1000 nM,"C=CC(=O)N1CC[C@@H](n2c(=O)n(-c3cccc(-c4ccccc4C)c3)c3cnccc32)C1 [Example 273, (R)-1-(1-acryloylpyrrolidin-3-yl)-3-(2′-methyl-[1,1′-biphenyl]-3-yl)-1H-imidazo[4,5-c]pyridin-2(3H)-one]"
7,10 to 100 nM,"C=CC(=O)N1CCC[C@@H](n2c(=O)n(-c3ccc(Oc4cccc(C)c4)cc3)c3cnccc32)C1 [Example 13, (R)-1-(1-acryloylpiperidin-3-yl)-3-(4-(m-tolyloxy)phenyl)-1H-imidazo[4,5-c]pyridin-2(3H)-one]"
8,10 to 100 nM,"C=CS(=O)(=O)N1CC[C@@H](n2c(=O)n(-c3ccc(Oc4ccccc4)c(Cl)c3)c3cnccc32)C1 [Example 23, (R)-3-(3-chloro-4-phenoxyphenyl)-1-(1-(vinylsulfonyl)pyrrolidin-3-yl)-1H-imidazo[4,5-c]pyridin-2(3H)-one]"
9,≤ 10 nM,"C=CC(=O)N1CC[C@@H](n2c(=O)n(-c3ccc(Oc4cccc(OC)c4F)cc3)c3cnccc32)C1 [Example 191, (R)-1-(1-acryloylpyrrolidin-3-yl)-3-(4-(2-fluoro-3-methoxyphenoxy)phenyl)-1H-imidazo[4,5-c]pyridin-2(3H)-one]"
10,≥ 10000 nM,"O=C(/C=C/c1ccccc1)N1CC[C@@H](n2c(=O)n(-c3ccc(Oc4ccccc4)c(Cl)c3)c3cnccc32)C1 [Example 22, (R,E)-3-(3-chloro-4-phenoxyphenyl)-1-(1-cinnamoylpyrrolidin-3-yl)-1H-imidazo[4,5-c]pyridin-2(3H)-one]"
11,100 to 1000 nM,"C=CC(=O)Nc1cccc(-n2c(=O)n(-c3ccc(OCc4c(F)cccc4F)cc3)c3cnccc32)c1 [Example 226, N-(3-(3-(4-((2,6-difluorobenzyl)oxy)phenyl)-2-oxo-2,3-dihydro-1H-imidazo[4,5-c]pyridin-1-yl)phenyl)acrylamide]"
12,100 to 1000 nM,"C=CC(=O)N1CC[C@@H](n2c(=O)n(-c3ccc(Oc4cccc(OC(C)C)c4)c(F)c3)c3cnccc32)C1 [Example 52, (R)-1-(1-acryloylpyrrolidin-3-yl)-3-(3-fluoro-4-(3-isopropoxyphenoxy)phenyl)-1H-imidazo[4,5-c]pyridin-2(3H)-one]"
13,≤ 10 nM,"C=CC(=O)N1CCC[C@@H](n2c(=O)n(-c3ccc(Oc4cccc(OC)c4F)cc3)c3cncc(OC)c32)C1 [Example 166, (R)-1-(1-acryloylpiperidin-3-yl)-3-(4-(2-fluoro-3-methoxyphenoxy)phenyl)-7-methoxy-1H-imidazo[4,5-c]pyridin-2(3H)-one]"
